“Also recorded” adds a separate entry of the source.
Key:
[1] = test system: primary mouse keratinocytes (1° MK); assay: UVB-evoked Ca++ signaling in primary mouse keratinocytes (fluo-4 imaging); format: cell-based
Method: Ca++ imaging of 1° MK was conducted following routine procedures. For UVB stimulation, a customized device was built. The system comprised a printed circuit board for electrical interconnects and mechanical support and an ultraviolet light-emitting diode (UV LED).
The operating wavelength was 295 nm (FIG. 2A), with a full-width half-max of 12 nm. The optical power was 500 mW. The focal point was aimed at the plane of the upper surface of the quartz coverslip, which was used to minimize UV absorption along the optical path towards the cells (FIG. 2A-FIG. 2C). The optical intensity at the focal point was estimated to be 150 mW/mm^2.
Ca++ imaging of mouse 1° MK in response to chemical activation of TRPV4 was conducted after loading with 2 μM fura2-AM, following a ratiometric Ca2+ imaging protocol with 340/380 nm […] for dual excitation. Ratios of emissions were acquired at 0.5 Hz. ΔR/R0 was determined as the fraction of the increase of a given ratio over baseline ratio, divided by baseline ratio. For stimulation of cells with UVB, where fura-2 was not suitable because of the proximity of stimulation with 340/380 nm and 295 nm, 2 μM fluo4-AM was used instead. Ca++ imaging was carried out at 488 nm excitation, acquisition of emissions at 0.5 Hz, expressed as ΔF/F0. In the custom-built UV optical system, UV LEDs were capped with a ball lens, a transparent optical window in the shape of a hemispherical lens (FIG. 2B). The LED output optical beam focused at 15-20 mm from the lens, with a spot diameter of approximately 1.5-2.0 mm (FIG. 2C). […] The thermal equilibration stage was set for physiological temperature.

[2] = test system: IL-1β; assay: Keratinocyte IL-1β expression in UVB-exposed footpad after topical treatment; format: in vivo, mouse; details: 5 mM GSK205 topical
Method: (§1) GSK205 topical treatment: A viscous solution of 68% EtOH/5% glycerol plus 1 mM or 5 mM GSK205 (none for control) was applied to hindpaws by rubbing in 20 μL, applied at time-points 1 hour and again 10 min before UV exposure.
(§2) Routine procedures were followed as described previously (Chen et al., 2009). Mice were perfused transcardially with 30 mL PBS, followed by 30 mL 4% paraformaldehyde. Tissues, including the L5 DRGs (bilateral), and footpad preparations, were dissected and post-fixed in 4% paraformaldehyde. Tissue blocks were further cryoprotected in 30% sucrose in PBS for 24-48 hours. For mouse TRPV4, keratin-specific antibodies, phospho-ERK, IL-6, IL-1β, CXCL5 and caspase-1, tissue was prepared as frozen blocks and subsequently sectioned on a cryostat. For CD68, CD15 (neutrophil elastase) and CD3, mouse skin was prepared by 2% PFA perfusion. […]

[3] = test system: IL-1β; assay: IL-1β secretion by UVB-exposed 1° MK (ELISA); format: cell-based, mouse; details: 5 μM GSK205
Method: Before UV irradiation, culture media was replaced with PBS. The cells were then irradiated at a dose of 50 mJ/cm^2 with UVB. 24 hours later, supernatants were assayed using IL-1β ELISA (R&D Systems, Minneapolis, Minn.).

[4] = test system: CXCL5; assay: Keratinocyte CXCL5 expression in UVB-exposed footpad after topical treatment; format: in vivo, mouse; details: 5 mM GSK205 topical
Method: as §1, §2

[5] = test system: IL-6; assay: Keratinocyte IL-6 expression in UVB-exposed footpad after topical treatment; format: in vivo, mouse; details: 5 mM GSK205 topical
Method: as §1, §2

[6] = test system: ET1/Edn1; assay: Edn1 mRNA (qPCR) in UVB-exposed paw-pad epidermis after topical treatment; format: in vivo, mouse; details: 5 mM GSK205 topical; 2 hour and 24 hour time-points
Method: as §1

## CN(CCc1ccc(Nc2nc(-c3cccnc3)cs2)cc1)Cc1ccccc1 [GSK205]
[1]; GSK205 20 μM
  UVB-evoked Ca++ signaling (ΔF/F0): very similar response to that of Trpv4−/− 1° MK; also recorded: strongly down-regulated; also recorded: significant attenuation
[1]; UVB and ET1 co-exposure
  ET1-augmented, UVB-induced Ca++ transients: greatly diminished
[2]
  keratinocyte expression of IL-1β in UVB-exposed footpad: failed to upregulate; also recorded: attenuates keratinocyte expression of IL-1β
[3]
  UVB-induced increase in IL-1β secretion: completely eliminated; also recorded: prevention of increase in IL-1β secretion
[4]
  keratinocyte expression of CXCL5 in UVB-exposed footpad: Comparably significant blocks; also recorded: attenuates keratinocyte expression of CXCL5
[5]
  keratinocyte expression of IL-6 in UVB-exposed footpad: Comparably significant blocks; also recorded: attenuates keratinocyte expression of IL-6
[6]
  Edn1 mRNA expression after UVB: unchanged; also recorded: complete lack of this regulation
